Test results as given in PubChem BioAssay AID1918930 (Molecular Pharmacology Branch, DTP, NCI, 2023).
pIC50: −log10 of the molar value.

System: 233499-124-R-J3-PDC complex spheroid viability, % test/control
Test: Anticancer human tumor 233499-124-R-J3-PDC patient-derived colon adenocarcinoma cell line growth inhibition
Conditions: for pIC50: curve of first compound; for viability, T/C: stronger effect = lower value
Procedure, shortened: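 Drug combinations with the LSD1 inhibitor iadademstat tested on tumor cells co-cultured as spheroids with endothelial cells and mesenchymal stem cells. Concentrations descended in half-log increments from clinical Cmax or 10 microM.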

[1] = second compound 0.1 µM, first compound 0.0316 µM
[2] = second compound 0.1 µM, first compound 0.1 µM
[3] = second compound 0.1 µM, first compound 0.316 µM
[4] = second compound 0.1 µM, first compound 1 µM
[5] = second compound 0.316 µM, first compound 0.0316 µM
[6] = second compound 0.316 µM, first compound 0.1 µM
[7] = second compound 0.316 µM, first compound 0.316 µM
[8] = second compound 0.316 µM, first compound 1 µM
[9] = second compound 1 µM, first compound 0.0316 µM
[10] = second compound 1 µM, first compound 0.1 µM
[11] = second compound 1 µM, first compound 0.316 µM
[12] = second compound 1 µM, first compound 1 µM
[13] = second compound 3.16 µM, first compound 0.0316 µM
[14] = second compound 3.16 µM, first compound 0.1 µM
[15] = second compound 3.16 µM, first compound 0.316 µM
[16] = second compound 3.16 µM, first compound 1 µM
[17] = second compound 10 µM, first compound 0.0316 µM
[18] = second compound 10 µM, first compound 0.1 µM
[19] = second compound 10 µM, first compound 0.316 µM
[20] = second compound 10 µM, first compound 1 µM
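Further: spheroids exposed to agents for one week before readout.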

Structure (SMILES)	pIC50 (second compound 0.1 µM)	pIC50 (second compound 0.316 µM)	pIC50 (second compound 1 µM)	pIC50 (second compound 3.16 µM)	pIC50 (second compound 10 µM)	viability, T/C [1]	viability, T/C [2]	viability, T/C [3]	viability, T/C [4]	viability, T/C [5]	viability, T/C [6]	viability, T/C [7]	viability, T/C [8]	viability, T/C [9]	viability, T/C [10]	viability, T/C [11]	viability, T/C [12]	viability, T/C [13]	viability, T/C [14]	viability, T/C [15]	other results
CC1COCCN1c1cc(-c2ccnn2C)c2ccnc(-c3ccn[nH]3)c2n1 (stereo not given) + NC1CC1c1ccc(-c2cccc(O)c2)cc1	< 6.00	< 6.00	< 6.00	> 8.50	> 8.50	36.7%	39.4%	56.4%	102%	38.9%	36.6%	43.7%	87.3%	37.4%	40.1%	39.1%	81.8%	39.5%	42.7%	44.2%	viability, T/C (second compound 0.1 µM, first compound 0.00316 µM): 60.7%; viability, T/C (second compound 0.1 µM, first compound 0.01 µM): 63.2%; viability, T/C (second compound 0.316 µM, first compound 0.00316 µM): 62.7%; viability, T/C (second compound 0.316 µM, first compound 0.01 µM): 75.6%; viability, T/C (second compound 1 µM, first compound 0.00316 µM): 64.1%; viability, T/C (second compound 1 µM, first compound 0.01 µM): 59.6%; viability, T/C (second compound 3.16 µM, first compound 0.00316 µM): 60.5%; viability, T/C (second compound 3.16 µM, first compound 0.01 µM): 50.9%; viability, T/C [16]: 82.1%; viability, T/C (second compound 10 µM, first compound 0.00316 µM): 53.4%; viability, T/C (second compound 10 µM, first compound 0.01 µM): 42.1%; viability, T/C [17]: 32.7%; viability, T/C [18]: 36.2%; viability, T/C [19]: 32.9%; viability, T/C [20]: 76.5%
CC1COCCN1c1cc(C2(S(C)(=N)=O)CC2)nc(-c2ccnc3[nH]ccc23)n1 (stereo not given) + NC1CC1c1ccc(-c2cccc(O)c2)cc1	< 5.00	< 5.00	< 5.00	5.35	5.51	110%	98.1%	109%	95.5%	105%	114%	101%	87.6%	95.6%	92.5%	93.9%	87.8%	108%	96.3%	90.3%	viability, T/C (second compound 0.1 µM, first compound 3.16 µM): 57%; viability, T/C (second compound 0.1 µM, first compound 10 µM): 65.6%; viability, T/C (second compound 0.316 µM, first compound 3.16 µM): 60.5%; viability, T/C (second compound 0.316 µM, first compound 10 µM): 69.3%; viability, T/C (second compound 1 µM, first compound 3.16 µM): 59.7%; viability, T/C (second compound 1 µM, first compound 10 µM): 52.7%; viability, T/C [16]: 70.1%; viability, T/C (second compound 3.16 µM, first compound 3.16 µM): 48.6%; viability, T/C (second compound 3.16 µM, first compound 10 µM): 47.1%; viability, T/C [17]: 92.2%; viability, T/C [18]: 77.5%; viability, T/C [19]: 80.6%; viability, T/C [20]: 78.2%; viability, T/C (second compound 10 µM, first compound 3.16 µM): 45.3%; viability, T/C (second compound 10 µM, first compound 10 µM): 53.8%
